Literature values, collected in US20060205727A1, “Combination therapy for endothelial dysfunction, angina and diabetes” (priority 2005, published 2006).

Assays:
[1] = in vivo
[2] = test system: plasma C-reactive protein; details: acute myocardial infarction, streptokinase plus intravenous trimetazidine infusion

Row | Structure (SMILES) | QT interval prolongation [1] | levels of plasma C-reactive protein [2]
1 | COc1ccccc1OCC(O)CN1CCN(CC(=O)Nc2c(C)cccc2C)CC1 (centres unmarked) [Ranolazine, ranolazine] | causes QT interval prolongation | 
2 | COc1ccc(CN2CCNCC2)c(OC)c1OC [trimetazidine] |  | reduce the levels of plasma C-reactive protein
